Legend:
K562 (BCR-ABL+) cells = assay: CCK-8 proliferation inhibition, K562 cells; assay type: cell-based, human; conditions: Homo sapiens, K562, 48 h, CCK-8, 48 hours of drug treatment; read-out: Proliferative inhibitory activity (IC50, nM) K562 (BCR-ABL+);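 further: Ten-point threefold dilution series starting at 10 µM, absorbance at 450 nm after 2 h with CCK-8, DMSO as negative control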
U937 (BCR-ABL-) cells = assay: CCK-8 proliferation inhibition, U937 cells; assay type: cell-based, human; conditions: Homo sapiens, U-937; CCK-8, 48 hours of drug treatment, highest concentration 10 μM; read-out: Proliferative inhibitory activity (IC50, nM) U937 (BCR-ABL-);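 further: Ten-point threefold dilution series, absorbance at 450 nm after 2 h with CCK-8 reagent, DMSO as negative control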
HEK293 (BCR-ABL-) cells = assay: CCK-8 proliferation inhibition, HEK293 cells; conditions: Homo sapiens, HEK293, 48 h, read-out: Proliferative inhibitory activity (IC50, nM) HEK293 (BCR-ABL-);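 further: Ten-point threefold dilution series starting at 10 µM, CCK-8 absorbance at 450 nm read after 2 h reagent incubation, DMSO-treated cells as negative control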
c-ABL protein = c-ABL protein (Homo sapiens, UniProt P00519); assay: Western blot degradation of c-ABL in K562 cells; assay type: cell-based; design: Western blot was used to detect the expression of BCR-ABL and c-ABL protein in K562 cells; endogenous in cells; host or cells: K562; conditions: 16 hours, 1 nM-10 μM
c-ABL protein, sequence (P00519 whole entry): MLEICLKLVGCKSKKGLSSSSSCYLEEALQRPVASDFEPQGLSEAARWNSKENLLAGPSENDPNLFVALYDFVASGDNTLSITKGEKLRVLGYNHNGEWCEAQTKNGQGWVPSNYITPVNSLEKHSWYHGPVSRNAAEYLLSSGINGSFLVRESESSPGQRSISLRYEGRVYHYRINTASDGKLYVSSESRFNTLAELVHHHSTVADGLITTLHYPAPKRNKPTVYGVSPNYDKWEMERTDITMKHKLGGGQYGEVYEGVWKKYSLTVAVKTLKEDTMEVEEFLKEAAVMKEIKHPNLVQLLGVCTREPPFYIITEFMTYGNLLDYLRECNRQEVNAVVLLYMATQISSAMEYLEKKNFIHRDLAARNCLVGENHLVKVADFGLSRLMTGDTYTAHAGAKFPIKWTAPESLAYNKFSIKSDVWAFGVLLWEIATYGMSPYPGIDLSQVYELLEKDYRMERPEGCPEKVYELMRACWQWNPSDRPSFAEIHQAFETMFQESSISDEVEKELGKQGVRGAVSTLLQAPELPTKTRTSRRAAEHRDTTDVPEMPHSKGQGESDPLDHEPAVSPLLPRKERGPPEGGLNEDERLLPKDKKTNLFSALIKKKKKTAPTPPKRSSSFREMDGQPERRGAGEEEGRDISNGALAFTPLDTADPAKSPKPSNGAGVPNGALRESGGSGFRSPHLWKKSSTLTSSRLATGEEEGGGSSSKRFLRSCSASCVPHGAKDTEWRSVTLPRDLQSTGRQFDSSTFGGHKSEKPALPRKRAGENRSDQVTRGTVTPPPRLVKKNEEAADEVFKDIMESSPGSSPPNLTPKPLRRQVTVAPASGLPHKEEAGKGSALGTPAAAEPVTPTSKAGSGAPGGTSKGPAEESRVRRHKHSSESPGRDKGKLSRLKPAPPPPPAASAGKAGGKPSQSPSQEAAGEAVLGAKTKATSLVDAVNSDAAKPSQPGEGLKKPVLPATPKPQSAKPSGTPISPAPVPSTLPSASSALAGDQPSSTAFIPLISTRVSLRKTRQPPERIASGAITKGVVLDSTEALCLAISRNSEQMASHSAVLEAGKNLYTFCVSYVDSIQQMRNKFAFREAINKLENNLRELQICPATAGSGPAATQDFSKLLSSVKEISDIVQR
Method: (§1) (1) Cell seed: K562 cells were added to the 24 well plates, with a cell density of 3×10^5/ml and a total volume of 1.5 ml; Five concentration gradients, 1 nm, 10 nm, 100 nm, 1 μM, and 10 μM, were respectively set for PROTAD series compounds and comparative examples compounds (Dasa-6-2-2-6-VHL, Dasa-6-2-6-CRBN). […] After 16 hours of drug treatment, the cells were collected in 1.5 ml ep tube, centrifuged at 3000 rpm for 3 minutes, and then added 30 μL PBS and 30 ul 2×SDS to cell precipitated, lysate Heat at 100° C. for 5 minutes, then place on ice for 5 minutes, centrifuged at 10000 rpm for 5 minutes, and take the supernatant as the total protein extracted. The protein concentration was determined by the Bradford method. After each sample was at the same concentration, bromophenol blue was added as the sample indicator.
(§2) (2) Electrophoresis: the starting voltage of the BioRad electrophoresis instrument was 80V, and as the dye enters the separation gel, the voltage was adjusted to 120V;
(§3) (3) Film transfer: prepare filter paper and nitrocellulose membrane with the corresponding size of the gel, filter paper, and NC film were soaked in transfer electrophoresis buffer.
(§4) DC50 (concentration required to degrade protein by half) were calculated based on the intensity from western blot, and data were analyzed via Prism GraphPad with non-linear regression.

BCR-ABL protein = BCR-ABL protein (Homo sapiens, UniProt P00519); assay: Western blot degradation of BCR-ABL in K562 cells; assay type: cell-based; design: Western blot was used to detect the expression of BCR-ABL and c-ABL protein in K562 cells; BCR (fusion partner, P11274); endogenous in cells; host or cells: K562; the other entry of the earlier key: BCR (P11274, Breakpoint cluster region protein); conditions: 16 hours, 1 nM-10 μM
BCR-ABL protein, sequence (P00519 with tags, fused parts or gaps): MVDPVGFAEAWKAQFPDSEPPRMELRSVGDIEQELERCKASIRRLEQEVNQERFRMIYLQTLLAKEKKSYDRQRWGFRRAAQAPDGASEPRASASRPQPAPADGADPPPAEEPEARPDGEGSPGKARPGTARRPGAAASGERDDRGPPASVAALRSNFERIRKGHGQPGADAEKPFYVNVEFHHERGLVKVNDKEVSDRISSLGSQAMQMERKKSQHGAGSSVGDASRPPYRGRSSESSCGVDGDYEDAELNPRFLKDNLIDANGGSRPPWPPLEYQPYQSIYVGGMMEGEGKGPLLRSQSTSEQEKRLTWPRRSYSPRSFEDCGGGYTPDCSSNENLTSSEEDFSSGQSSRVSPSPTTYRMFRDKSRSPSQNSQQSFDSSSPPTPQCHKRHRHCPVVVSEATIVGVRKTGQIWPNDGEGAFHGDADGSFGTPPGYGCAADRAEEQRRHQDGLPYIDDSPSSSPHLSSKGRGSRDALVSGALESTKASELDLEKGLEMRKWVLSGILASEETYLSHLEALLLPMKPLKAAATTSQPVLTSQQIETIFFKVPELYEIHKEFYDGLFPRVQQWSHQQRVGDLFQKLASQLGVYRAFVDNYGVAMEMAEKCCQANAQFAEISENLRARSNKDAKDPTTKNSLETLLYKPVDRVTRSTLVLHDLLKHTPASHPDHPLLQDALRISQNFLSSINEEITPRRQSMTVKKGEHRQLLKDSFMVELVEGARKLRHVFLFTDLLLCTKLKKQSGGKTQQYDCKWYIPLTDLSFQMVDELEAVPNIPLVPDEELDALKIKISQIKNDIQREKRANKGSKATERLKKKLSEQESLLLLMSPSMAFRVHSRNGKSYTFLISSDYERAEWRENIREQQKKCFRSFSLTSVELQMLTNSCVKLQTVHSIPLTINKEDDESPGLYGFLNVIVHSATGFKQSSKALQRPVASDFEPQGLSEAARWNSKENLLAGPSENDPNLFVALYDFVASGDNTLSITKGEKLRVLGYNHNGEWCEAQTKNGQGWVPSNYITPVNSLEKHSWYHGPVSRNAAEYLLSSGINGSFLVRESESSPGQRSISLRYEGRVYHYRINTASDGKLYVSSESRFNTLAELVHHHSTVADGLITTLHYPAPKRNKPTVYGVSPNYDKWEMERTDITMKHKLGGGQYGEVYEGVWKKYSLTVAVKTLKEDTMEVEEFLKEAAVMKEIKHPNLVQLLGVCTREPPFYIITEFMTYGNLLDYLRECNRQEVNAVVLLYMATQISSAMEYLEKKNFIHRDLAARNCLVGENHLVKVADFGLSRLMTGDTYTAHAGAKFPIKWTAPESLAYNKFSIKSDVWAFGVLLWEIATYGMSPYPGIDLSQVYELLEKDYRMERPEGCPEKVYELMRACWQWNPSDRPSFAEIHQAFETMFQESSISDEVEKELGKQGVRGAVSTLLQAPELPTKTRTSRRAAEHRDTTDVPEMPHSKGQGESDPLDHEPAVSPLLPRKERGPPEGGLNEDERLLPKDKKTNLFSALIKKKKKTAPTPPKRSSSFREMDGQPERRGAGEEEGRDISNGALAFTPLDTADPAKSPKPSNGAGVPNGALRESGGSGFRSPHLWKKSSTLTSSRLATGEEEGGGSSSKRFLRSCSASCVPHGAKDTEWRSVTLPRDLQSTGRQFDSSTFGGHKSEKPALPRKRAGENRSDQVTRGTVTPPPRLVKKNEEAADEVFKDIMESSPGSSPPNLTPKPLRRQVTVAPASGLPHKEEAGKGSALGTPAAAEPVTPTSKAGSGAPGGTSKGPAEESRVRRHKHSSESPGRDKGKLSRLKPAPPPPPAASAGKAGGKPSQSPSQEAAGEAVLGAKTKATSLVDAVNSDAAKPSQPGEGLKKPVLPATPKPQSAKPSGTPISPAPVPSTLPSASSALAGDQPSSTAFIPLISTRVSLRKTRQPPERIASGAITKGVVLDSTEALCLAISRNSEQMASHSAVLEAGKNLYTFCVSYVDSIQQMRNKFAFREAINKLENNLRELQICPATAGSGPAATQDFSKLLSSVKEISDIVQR
Method: as §1, §2, §3, §4

Structure (SMILES)	IC50 (K562 (BCR-ABL+) cells)	IC50 (U937 (BCR-ABL-) cells)	DC50 (c-ABL protein)	DC50 (BCR-ABL protein)	IC50 (HEK293 (BCR-ABL-) cells)
Cc1nc(Nc2ncc(C(=O)Nc3c(C)cccc3Cl)s2)cc(N2CCN(C(=O)CCC(=O)Nc3cccc4c3CN(C3CCC(=O)NC3=O)C4=O)CC2)n1 (stereo not drawn) [SIAIS164109, N-(2-chloro-6-methylphenyl)-2-((6-(4-(4-((2-(2,6-dioxopiperidin-3-yl)-1-oxoisoindolin-4-yl)amino)-4-oxobutanoyl)piperazin-1-yl)-2-methylpyrimidin-4-yl)amino)thiazole-5-carboxamide]	7.08 nM	> 10000 nM	100 to 1000 nM	100 to 1000 nM	> 10000 nM
COc1cc(Nc2c(C#N)cnc3cc(OCCCN4CCN(C(=O)CCCCNc5cccc6c5C(=O)N(C5CCC(=O)NC5=O)C6=O)CC4)c(OC)cc23)c(Cl)cc1Cl (stereo not drawn) [SIAIS151163, 4-((2,4-dichloro-5-methoxyphenyl)amino)-7-(3-(4-(5-((2-(2,6-dioxopiperidin-3-yl)-1,3-dioxoisoindolin-4-yl)amino)pentanoyl)piperazin-1-yl)propoxy)-6-methoxyquinoline-3-carbonitrile]	126 nM	> 10000 nM	10 to 100 nM	10 to 100 nM	> 10000 nM
Cc1nc(Nc2ncc(C(=O)Nc3c(C)cccc3Cl)s2)cc(N2CCN(C(=O)CCCCCC(=O)N[C@H](C(=O)N3C[C@H](O)C[C@H]3C(=O)NCc3ccc(-c4scnc4C)cc3)C(C)(C)C)CC2)n1 [SIAIS151177, N-(2-chloro-6-methylphenyl)-2-((6-(4-(7-(((S)-1-((2S,4R)-4-hydroxy-2-((4-(4-methylthiazol-5-yl)benzyl)carbamoyl)pyrrolidin-1-yl)-3,3-dimethyl-1-oxobutan-2-yl)amino)-7-oxoheptanoyl)piperazin-1-yl)-2-methylpyrimidin-4-yl)amino)thiazole-5-carboxamide]	37.6 nM	> 10000 nM	10 to 100 nM	1 to 10 nM	> 10000 nM
COc1cc(Nc2c(C#N)cnc3cc(OCCCN4CCN(C(=O)CCCCCCNc5cccc6c5C(=O)N(C5CCC(=O)NC5=O)C6=O)CC4)c(OC)cc23)c(Cl)cc1Cl (stereo not drawn) [SIAIS151167, 4-((2,4-dichloro-5-methoxyphenyl)amino)-7-(3-(4-(7-((2-(2,6-dioxopiperidin-3-yl)-1,3-dioxoisoindolin-4-yl)amino)heptanoyl)piperazin-1-yl)propoxy)-6-methoxyquinoline-3-carbonitrile]	3650 nM	> 10000 nM	10 to 100 nM	10 to 100 nM	> 10000 nM
COc1cc(Nc2c(C#N)cnc3cc(OCCCN4CCN(C(=O)CCOCCOCCOCCOCCOCCNc5cccc6c5C(=O)N(C5CCC(=O)NC5=O)C6=O)CC4)c(OC)cc23)c(Cl)cc1Cl (stereo not drawn) [SIAIS151161, 4-((2,4-dichloro-5-methoxyphenyl)amino)-7-(3-(4-(1-((2-(2,6-dioxopiperidin-3-yl)-1,3-dioxoisoindolin-4-yl)amino)-3,6,9,12,15-pentaoxaoctadecan-18-oyl)piperazin-1-yl)propoxy)-6-methoxyquinoline-3-carbonitrile]	7260 nM	> 10000 nM	100 to 1000 nM	100 to 1000 nM	> 10000 nM
Cc1nc(Nc2ncc(C(=O)Nc3c(C)cccc3Cl)s2)cc(N2CCN(C(=O)CCCCC(=O)N[C@H](C(=O)N3C[C@H](O)C[C@H]3C(=O)NCc3ccc(-c4scnc4C)cc3)C(C)(C)C)CC2)n1 [SIAIS151176, N-(2-chloro-6-methylphenyl)-2-((6-(4-(6-(((S)-1-((2S,4R)-4-hydroxy-2-((4-(4-methylthiazol-5-yl)benzyl)carbamoyl)pyrrolidin-1-yl)-3,3-dimethyl-1-oxobutan-2-yl)amino)-6-oxohexanoyl)piperazin-1-yl)-2-methylpyrimidin-4-yl)amino)thiazole-5-carboxamide]	89 nM	> 10000 nM	100 to 1000 nM	10 to 100 nM	> 10000 nM
Cc1nc(Nc2ncc(C(=O)Nc3c(C)cccc3Cl)s2)cc(N2CCN(C(=O)CCCCCOCCOCCOCCCCCC(=O)Nc3cccc4c3C(=O)N(C3CCC(=O)NC3=O)C4=O)CC2)n1 (stereo not drawn) [SIAIS171114, N-(2-chloro-6-methylphenyl)-2-((6-(4-(6-(2-(2-((6-((2-(2,6-dioxopiperidin-3-yl)-1,3-dioxoisoindolin-4-yl)amino)-6-oxohexyl)oxy)ethoxy)ethoxy)hexanoyl)piperazin-1-yl)-2-methylpyrimidin-4-yl)amino)thiazole-5-carboxamide]	2.57 nM	> 10000 nM	10 to 100 nM	10 to 100 nM	> 10000 nM

More lines, main results first:

IC50 (K562 (BCR-ABL+) cells)	IC50 (U937 (BCR-ABL-) cells)	DC50 (c-ABL protein)	DC50 (BCR-ABL protein)	Structure (SMILES)	IC50 (HEK293 (BCR-ABL-) cells)
1.22 nM	> 10000 nM	1 to 10 nM	< 1 nM	Cc1nc(Nc2ncc(C(=O)Nc3c(C)cccc3Cl)s2)cc(N2CCN(C(=O)CNc3cccc4c3C(=O)N(C3CCC(=O)NC3=O)C4=O)CC2)n1 (stereo not drawn) [SIAIS151072, N-(2-chloro-6-methylphenyl)-2-((6-(4-((2-(2,6-dioxopiperidin-3-yl)-1,3-dioxoisoindolin-4-yl)glycyl)piperazin-1-yl)-2-methylpyrimidin-4-yl)amino)thiazole-5-carboxamide]	> 10000 nM
1.47 nM	> 10000 nM	1 to 10 nM	1 to 10 nM	Cc1nc(Nc2ncc(C(=O)Nc3c(C)cccc3Cl)s2)cc(N2CCN(C(=O)CCCCCCNc3cccc4c3C(=O)N(C3CCC(=O)NC3=O)C4=O)CC2)n1 (stereo not drawn) [SIAIS151181, N-(2-chloro-6-methylphenyl)-2-((6-(4-(7-((2-(2,6-dioxopiperidin-3-yl)-1,3-dioxoisoindolin-4-yl)amino)heptanoyl)piperazin-1-yl)-2-methylpyrimidin-4-yl)amino)thiazole-5-carboxamide]	> 10000 nM
5.5 nM	> 10000 nM	1 to 10 nM	1 to 10 nM	Cc1nc(Nc2ncc(C(=O)Nc3c(C)cccc3Cl)s2)cc(N2CCN(C(=O)CCCNc3cccc4c3C(=O)N(C3CCC(=O)NC3=O)C4=O)CC2)n1 (stereo not drawn) [SIAIS151070, N-(2-chloro-6-methylphenyl)-2-((6-(4-(4-((2-(2,6-dioxopiperidin-3-yl)-1,3-dioxoisoindolin-4-yl)amino)butanoyl)piperazin-1-yl)-2-methylpyrimidin-4-yl)amino)thiazole-5-carboxamide]	> 10000 nM
7 nM	> 10000 nM	1 to 10 nM	1 to 10 nM	Cc1nc(Nc2ncc(C(=O)Nc3c(C)cccc3Cl)s2)cc(N2CCN(C(=O)COc3cccc4c3C(=O)N(C3CCC(=O)NC3=O)C4=O)CC2)n1 (stereo not drawn) [SIAIS184128, N-(2-chloro-6-methylphenyl)-2-((6-(4-(2-((2-(2,6-dioxopiperidin-3-yl)-1,3-dioxoisoindolin-4-yl)oxy)acetyl)piperazin-1-yl)-2-methylpyrimidin-4-yl)amino)thiazole-5-carboxamide]	> 10000 nM
2.84 nM	> 10000 nM	10 to 100 nM	10 to 100 nM	Cc1nc(Nc2ncc(C(=O)Nc3c(C)cccc3Cl)s2)cc(N2CCN(C(=O)CCc3cccc4c3C(=O)N(C3CCC(=O)NC3=O)C4=O)CC2)n1 (stereo not drawn) [SIAIS172150, N-(2-chloro-6-methylphenyl)-2-((6-(4-(3-(2-(2,6-dioxopiperidin-3-yl)-1,3-dioxoisoindolin-4-yl)propanoyl)piperazin-1-yl)-2-methylpyrimidin-4-yl)amino)thiazole-5-carboxamide]	> 10000 nM

Source: patent US11639343B2, “Compounds targeting and degrading BCR-ABL protein and its antitumor application” (ShanghaiTech University, priority 2019, dated 2023)
